Assay results from patent US20240245770A1, “COMPOSITIONS AND METHODS FOR TREATING NEUROMUSCULAR DISORDERS” (The Regents of the University of California, priority 2019, published 2024).

Tested on: serum cytokine/chemokine/growth factor/ligands of ALS patient
Assay: Serum Luminex, before and after NAC treatment
Assay type: in vivo, human
Protocol: (§1) Serum Luminex. Serum from patients were used to determine the levels of cytokine/chemokine/growth factor/ligands secretion using multiplex luminex assay. Scatter plot was prepared using the levels of cytokine/chemokine/growth factor/ligands in serum obtained at different dates from patients as compared to controls.
Serum Luminex. Serum from patients were used to determine the levels of cytokine/chemokine/growth factor/ligands secretion using multiplex luminex assay.
as §1

[1] = H110 RS post NAC (second line, continues Table 138A)
[2] = JC sera Apr. 5, 2020 (NAC infusion)
[3] = JC sera Apr. 16, 2020 (NAC infusion)
[4] = JC sera Apr. 23, 2020 (NAC infusion)

In the case of CC(=O)N[C@@H](CS)C(=O)O [NAC, N-Acetyl-Cysteine], the TNFa [1] is reported as 30.58 pg/mL, the TNFb [1] is reported as 6.89 pg/mL and the VEGF [1] is reported as 247.51 pg/mL. The sCD40L [1] was 3545 pg/mL, the EGF (H110 RS post NAC, Aug. 8, 2019) was 21.91 pg/mL and the Eotaxin (H110 RS post NAC, Aug. 8, 2019) was 116.77 pg/mL. It also gave an FGF2 (H110 RS post NAC, Aug. 8, 2019) of 44.55 pg/mL, an FIT3L (H110 RS post NAC, Aug. 8, 2019) of 15.11 pg/mL and a Fractalkine (H110 RS post NAC, Aug. 8, 2019) of 61.83 pg/mL. For the same compound, the GCSF (H110 RS post NAC, Aug. 8, 2019) was 6131 pg/mL, the GMCSF (H110 RS post NAC, Aug. 8, 2019) was 26.68 pg/mL and the IFNa2 (H110 RS post NAC, Aug. 8, 2019) was 31.31 pg/mL. The TGFa (H110 RS post NAC, Aug. 8, 2019) was 22.12 pg/mL, the IL-2 (JC sera Apr. 5, 2020) was 0.14 pg/mL and the IL-4 (JC sera Apr. 5, 2020) was 18.46 pg/mL. It also gave an IL-5 (JC sera Apr. 5, 2020) of 2.64 pg/mL, an IL-6 (JC sera Apr. 5, 2020) of 2.74 pg/mL and an IL-7 (JC sera Apr. 5, 2020) of 5.61 pg/mL. The IL-8 (JC sera Apr. 5, 2020) was 5.32 pg/mL, the IL-21 (JC sera Apr. 5, 2020) was 0.82 pg/mL and the IL-23 (JC sera Apr. 5, 2020) was 144.83 pg/mL. For the same compound, the MIP-1a (JC sera Apr. 5, 2020) was 11.35 pg/mL, the MIP-1b (JC sera Apr. 5, 2020) was 24.47 pg/mL and the TNFa (JC sera Apr. 5, 2020) was 9.39 pg/mL. It also gave a Franktalkine [2] of 39.54 pg/mL, a GM-CSF [2] of 91.74 pg/mL and an IFNg [2] of 11.6 pg/mL. For the same compound, the IL-1b [2] was 0.87 pg/mL, the IL-10 [2] was 8.12 pg/mL and the IL-12p70 [2] was 2.32 pg/mL. For the same compound, the IL-13 [2] was 4.83 pg/mL, the IL-17A [2] was 6.07 pg/mL and the ITAC [2] was 18.73 pg/mL. The MIP-3a [2] was 11.35 pg/mL, the IL-2 (JC sera Apr. 16, 2020) was 0.32 pg/mL and the IL-4 (JC sera Apr. 16, 2020) was 11.22 pg/mL. It also gave an IL-5 (JC sera Apr. 16, 2020) of 2.21 pg/mL, an IL-7 (JC sera Apr. 16, 2020) of 4.9 pg/mL and an IL-8 (JC sera Apr. 16, 2020) of 3.55 pg/mL. It also gave an IL-21 (JC sera Apr. 16, 2020) of 0.62 pg/mL, an IL-23 (JC sera Apr. 16, 2020) of 116.26 pg/mL and an MIP-1a (JC sera Apr. 16, 2020) of 10.8 pg/mL. The MIP-1b (JC sera Apr. 16, 2020) was 18.56 pg/mL, the TNFa (JC sera Apr. 16, 2020) was 7.45 pg/mL and the Franktalkine [3] was 33.33 pg/mL. It also gave a GM-CSF [3] of 54.8 pg/mL, an IFNg [3] of 7.11 pg/mL and an IL-1b [3] of 0.65 pg/mL. It also gave an IL-10 [3] of 4.47 pg/mL, an IL-12p70 [3] of 2.1 pg/mL and an IL-13 [3] of 4.44 pg/mL. The IL-17A [3] was 3.15 pg/mL, the ITAC [3] was 11.26 pg/mL and the MIP-3a [3] was 5.58 pg/mL. For the same compound, the IL-2 (JC sera Apr. 23, 2020) was 5.42 pg/mL, the IL-4 (JC sera Apr. 23, 2020) was 15.94 pg/mL and the IL-5 (JC sera Apr. 23, 2020) was 2.21 pg/mL. For the same compound, the IL-7 (JC sera Apr. 23, 2020) was 6.39 pg/mL, the IL-8 (JC sera Apr. 23, 2020) was 3.72 pg/mL and the IL-21 (JC sera Apr. 23, 2020) was 0.68 pg/mL. For the same compound, the IL-23 (JC sera Apr. 23, 2020) was 132.6 pg/mL, the MIP-1a (JC sera Apr. 23, 2020) was 11.24 pg/mL and the MIP-1b (JC sera Apr. 23, 2020) was 16.32 pg/mL. It also gave a TNFa (JC sera Apr. 23, 2020) of 7.45 pg/mL, a Franktalkine [4] of 34.75 pg/mL and a GM-CSF [4] of 84.17 pg/mL. It also gave an IFNg [4] of 6.15 pg/mL, an IL-1b [4] of 0.77 pg/mL and an IL-10 [4] of 6 pg/mL. The IL-12p70 [4] was 2 pg/mL, the IL-13 [4] was 4.17 pg/mL and the IL-17A [4] was 2.78 pg/mL. For the same compound, the ITAC [4] was 10.71 pg/mL, the MIP-3a [4] was 6.78 pg/mL and the IL-2 (JC sera Apr. 30, 2020) was 0.06 pg/mL. For the same compound, the IL-4 (JC sera Apr. 30, 2020) was 14.43 pg/mL.
